The values that follow come from US6858597B2, “Halogenated sulphamate-, phosphonate-, thiophosphonate-, sulphonate- and sulphonamide- compounds as inhibitors of steroid sulphatase” (Sterix Limited, priority 1999, dated 2005).

As usually defined, the pIC50 is the IC50 on a negative log10 scale, so that one unit is a factor of ten. What is called inhibition is how much of the control response was suppressed.

pIC50: −log10 of the molar value. Bounds are passed on as bounds.

In one data set the test system is rats. To be noted: cited from earlier work.
The next data set has as its target T1, steroid sulphatase (Homo sapiens, UniProt P08842).
T1 sequence (P08842 22-583): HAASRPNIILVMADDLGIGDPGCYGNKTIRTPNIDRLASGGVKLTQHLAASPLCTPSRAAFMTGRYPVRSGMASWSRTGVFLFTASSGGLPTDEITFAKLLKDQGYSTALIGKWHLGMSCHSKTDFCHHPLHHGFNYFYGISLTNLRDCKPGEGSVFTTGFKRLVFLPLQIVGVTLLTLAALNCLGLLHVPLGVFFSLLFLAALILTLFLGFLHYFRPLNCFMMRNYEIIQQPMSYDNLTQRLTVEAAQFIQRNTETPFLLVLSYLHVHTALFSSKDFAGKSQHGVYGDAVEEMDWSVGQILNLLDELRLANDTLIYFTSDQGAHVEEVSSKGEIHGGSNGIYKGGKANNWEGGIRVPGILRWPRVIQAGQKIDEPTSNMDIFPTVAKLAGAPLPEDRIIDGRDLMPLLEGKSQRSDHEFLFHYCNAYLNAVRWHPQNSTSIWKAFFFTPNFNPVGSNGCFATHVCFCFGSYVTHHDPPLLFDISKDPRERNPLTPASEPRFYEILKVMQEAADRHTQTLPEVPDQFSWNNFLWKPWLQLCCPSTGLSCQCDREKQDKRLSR
To be noted: compared with EMATE, cited from earlier work; for E1-STS inactivation: 3-O-atom replaced by other heteroatoms.

The target in a further data set is T2, steroid sulphatase (STS) (Homo sapiens, UniProt P08842).
T2 construct: Placental microsomes were obtained by centrifugation of the resulting supernatant at 100,000×g for 1 h; from tissue; host or cells: human placenta (microsomes)
T2 sequence (P08842 22-583): T1 sequence (P08842 22-583)
Briefly: STS inhibition, IC50 (protocol not given). The class given is biochemical. To be noted: assay not given. The method, then: Sulphatase-positive human placenta from normal term pregnancies are thoroughly minced with scissors and washed once with cold phosphate buffer (pH 7.4, 50 mM) then re-suspended in cold phosphate buffer (5 ml/g tissue). Homogenisation is accomplished with an Ultra-Turrax homogeniser, using three 10 second bursts separated by 2 minute cooling periods in ice. Nuclei and cell debris are removed by centrifuging (4° C.) at 2000 g for 30 minutes and portions (2 ml) of the supernatant are stored at […] The protein concentration of the supernatants is determined by the method of Bradford (Anal. Biochem., 72, 248-254 (1976)).
Incubations (1 ml) are carried out using a protein concentration of […], substrate concentration of […] [6,7-3H]oestrone-3-sulphate (specific activity 60 Ci/mmol from New England Nuclear, Boston, Mass., U.S.A.) and an incubation time of 20 minutes at 37° C. If necessary eight concentrations of compounds are employed: 0 (i.e. control); 0.05 mM; 0.1 mM; 0.2 mM; 0.4 mM; 0.6 mM; 0.8 mM; 1.0 mM. After incubation each sample is cooled and the medium (1 ml) was pipetted into separate tubes containing [14C]oestrone (7×10^3 dpm) (specific activity 97 Ci/mmol from Amersham International Radiochemical Centre, Amersham, U.K.). The mixture is shaken thoroughly for 30 seconds with toluene (5 ml). Experiments have shown that >90% [14C]oestrone and <0.1% [3H]oestrone-3-sulphate is removed from the aqueous phase by this treatment. A portion (2 ml) of the organic phase was removed, evaporated and the 3H and 14C content of the residue determined by scintillation spectrometry. The mass of oestrone-3-sulphate hydrolysed is calculated from the 3H counts obtained (corrected for the volumes of the medium and organic phase used, and for recovery of [14C]oestrone added) and the specific activity of the substrate.
A sulphatase—positive human placenta was used as a source of placental microsomes. Tissue was homogenised and nuclei and cell debris removed by centrifugation at 2000×g for 30 min. Placental microsomes were obtained by centrifugation of the resulting supernatant at 100,000×g for 1 h.
For inhibition studies placental microsomes (125 μg/ml) were incubated in the absence or presence of inhibitors (1 pm-1.0 μM) with ^3H estrone sulphate (E1S, 2×10^5 dpm adjusted to 20 μM with unlabelled E1S for 60 mins. [4-^14C E1] (7×10^3 dpm) was added to correct for procedural losses and free and sulphated steroids separated by solvent partition using toluene. A portion of the solvent was removed and the ^3H and ^14C content determined by liquid scintillation spectrometry.

A further data set concerns MCF-7 cells. The data set can be described thus: Plate Assay in MCF-7 cells. The class given is cell-based. To be noted: Homo sapiens, MCF7.
The next data set relates to T47D cells. The data set can be described thus: Effect of Halo-EMATEs on T47D cell growth (plate assay). The arrangement: key to Morphology: +: has effect on cell morphology. To be noted: for inhibition at 1 µM / inhibition at 10 µM: Homo sapiens, 24 h. The class given is cell-based. The procedure:
Effect of Halo-EMATES on T47D Cell Growth (Plate Assay)
T47D receptor positive breast cancer cells were seeded into a 96 well cell culture plate and allowed to grow until approximately 70% confluent. Cells were treated with either vehicle (controls, tetrahydrofuran in medium) or halo-EMATEs (1 or 10 μM) and cultured for a further 24 h. At the end of this period effects of the drugs on cell numbers were determined using a microtitre plate assay (Cell Titre 96 cell proliferation assay, Promega). In this assay the conversion of substrate by untreated cells at the end of the culture period was set at 100%.

The conditions of data set [1]: cited from earlier work.
Another data set has as its target T3, E1-STS (Homo sapiens, UniProt P08842).
T3 construct: endogenous in cells; host or cells: MCF-7
T3 sequence (P08842 22-583): T1 sequence (P08842 22-583)
The settings on record: intact MCF-7 cells, 0.1 mM; cited from earlier work.

Take `COc1cc2c(cc1OS(N)(=O)=O)CC[C@@H]1[C@@H]2CC[C@]2(C)C(=O)CC[C@@H]12` [2-methoxyoestrone-3-O-sulphamate]: in the data set on rats (rat, in vivo), the oestrogenicity result is listed as “devoid of oestrogenicity”. The “potency as steroid sulphatase inhibitor” value on steroid sulphatase is listed as “equipotent with EMATE”.
On to `C[C@]12CC[C@@H]3c4cc(Br)c(OS(N)(=O)=O)cc4CC[C@H]3[C@@H]1CCC2=O` [Compound 4, 2-Bromooestrone 3-O-sulphamate], for which the pIC50 against steroid sulphatase (STS) was 8.78. In addition, in the data set with MCF-7 cells, 10 µM produced 33% inhibition. Besides, the Morphology entry in the data set on T47D cells was “+”.
The corresponding values for `C[C@]12CC[C@@H]3c4cc(I)c(OS(N)(=O)=O)cc4CC[C@H]3[C@@H]1CCC2=O` [Compound 7, 2-Iodooestrone 3-O-sulphamate] are 8.21, 25% and “+”.
For `C[C@]12CC[C@@H]3c4cc(Cl)c(OS(N)(=O)=O)cc4CC[C@H]3[C@@H]1CCC2=O` [Compound 10, 2-Chloroestrone 3-O-sulphamate], the pIC50 against steroid sulphatase (STS) is 9.10. In the data set with MCF-7 cells, this compound had an inhibition at 10 µM of 35%. For the same compound, in the data set with T47D cells, the Morphology result is given as “+”, 1 µM produced 1% inhibition and the inhibition at 10 µM was determined as 7.5%.
The compound `C[C@]12CCC3c4cc(F)c(OS(N)(=O)=O)cc4CCC3C1CCC2=O` (stereo partly shown) [Compound 13, 2-Fluorooestrone-3-O-sulphamate] gave a pIC50 at steroid sulphatase (STS) of 8.25. In the data set with T47D cells, the Morphology entry is on record as “+”, the inhibition at 1 µM is less than 1% and the inhibition at 10 µM was found to be 30%.
With `C[C@]12CC[C@@H]3c4ccc(OS(=O)(=O)O)cc4CC[C@H]3[C@@H]1CCC2=O` [Compound E1S, oestrone sulphate], the half-life in blood in data set [1] is 10 to 12 h.
Regarding `CC12CCC3c4ccc(OS(N)(=O)=O)cc4CCC3C1CCC2=O` (stereo not shown) [EMATE, oestrone-3-O-sulphamate], the “inhibition of E1-STS activity” value on E1-STS is on record as “more than 99%”. The “oral uterotrophic activity relative to estradiol” value with rats (rats, oral) was 100 times.
As for oestrone-3-N-sulphamate, the E1-STS inactivation entry on steroid sulphatase is “weaker non-time-dependent inactivators”.
On to oestrone-3-S-sulphamate, for which, on steroid sulphatase, the E1-STS inactivation result was “weaker non-time-dependent inactivators”.
